Measurements reported in patent US10239870B2, “Dopamine D3 receptor antagonists” (priority 2014, dated 2019).
pKi: −log10 of the molar value. Where a name gives a salt, the structure may show the parent alone.

What follows are compounds tested against hD2 recombinant receptor (human dopamine receptor type 2, long variant, CHO-Gα16-hD2L membranes) (Homo sapiens (Human), UniProt P14416) (assay: not given). Details: displacement of 0.08 nM [3H]-Spiperone.
`Cn1c(SCCCN2CC[C@]3(C[C@@H]3c3ccc(C(F)(F)F)cc3F)C2)nnc1-c1ccn2cnnc2c1` [Example 270, (1S,3S)-1-[2-fluoro-4-(trifluoromethyl)phenyl]-5-{3-[(4-methyl-5-{[1,2,4]triazolo[4,3-a]pyridin-7-yl}-4H-1,2,4-triazol-3-yl)sulfanyl]propyl}-5-azaspiro[2.4]heptane] was tested, and the “D2 pKi” value was 6.04.
For `Cl.Cn1c(SCCCN2CC[C@]3(C[C@@H]3c3ccc(C(F)(F)F)cc3)C2)nnc1-c1ccc2nncn2c1` [Example 268, (1R,3S)-5-{3-[(4-methyl-5-{[1,2,4]triazolo[4,3-a]pyridin-6-yl}-4H-1,2,4-triazol-3-yl)-sulfanyl]propyl}-1-[4-(trifluoromethyl)phenyl]-5-azaspiro[2.4]heptane], the “D2 pKi” value was 5.80.
With `Cl.Cn1c(SCCCN2CC[C@]3(C[C@@H]3c3ccc(C(F)(F)F)cc3)C2)nnc1C1CCN(C(=O)C2CC2)CC1` [Example 106, (1R,3S)-5-(3-{[5-(1-cyclopropanecarbonylpiperidin-4-yl)-4-methyl-4H-1,2,4-triazol-3-yl]sulfanyl}propyl)-1-[4-(trifluoromethyl)phenyl]-5-azaspiro[2.4]heptane hydrochloride] the “D2 pKi” value was 6.05.
For `Cl.Cn1c(SCCCN2CC[C@]3(C[C@@H]3c3ccc(C(F)(F)F)cc3)C2)nnc1-c1ccc[nH]c1=O` [Example 125, 3-[4-methyl-5-({3-[(1R,3S)-1-[4-(trifluoromethyl)phenyl]-5-azaspiro[2.4]heptan-5-yl]propyl}sulfanyl)-4H-1,2,4-triazol-3-yl]-1,2-dihydropyridin-2-one hydrochloride], the “D2 pKi” value was 5.48.
In the case of `Cn1c(SCCCN2CC[C@]3(CC3c3ccccc3C(F)(F)F)C2)nnc1-c1cc[nH]c(=O)c1` (stereo partly drawn) [Example 135, 4-[4-methyl-5-({3-[(1S,3S/1R,3R)-1-[2-(trifluoromethyl)phenyl]-5-azaspiro[2.4]heptan-5-yl]propyl}sulfanyl)-4H-1,2,4-triazol-3-yl]-1,2-dihydropyridin-2-one], the “D2 pKi” value was 6.54.
For `Cn1c(SCCCN2CC[C@]3(CC3c3ccc(F)cc3F)C2)nnc1-c1ccc(=O)[nH]c1` (stereo partly drawn) [Example 130, 5-[5-({3-[(1S,3S/1R,3R)-1-(2,4-difluorophenyl)-5-azaspiro[2.4]heptan-5-yl]propyl}sulfanyl)-4-methyl-4H-1,2,4-triazol-3-yl]-1,2-dihydropyridin-2-one], the “D2 pKi” value was 6.16.
For `Cn1c(SCCCN2CC[C@]3(CC3c3ccc(C(F)(F)F)cc3F)C2)nnc1-c1ccc(=O)[nH]c1` (stereo partly drawn) [Example 129, 5-[5-({3-[(1S,3S/1R,3R)-1-[2-fluoro-4-(trifluoromethyl)phenyl]-5-azaspiro[2.4]heptan-5-yl]propyl}sulfanyl)-4-methyl-4H-1,2,4-triazol-3-yl]-1,2-dihydropyridin-2-one], the “D2 pKi” value was 6.35.
In the case of `CC(=O)N1CCC(c2nnc(SCCCN3CC[C@]4(C[C@@H]4c4ccc(C(F)(F)F)cc4F)C3)n2C)CC1.Cl` [Example 102, 1-{4-[5-({3-[(1S,3S)-1-[2-fluoro-4-(trifluoromethyl)phenyl]-5-azaspiro[2.4]heptan-5-yl]propyl}sulfanyl)-4-methyl-4H-1,2,4-triazol-3-yl]piperidin-1-yl}ethan-1-one hydrochloride], the “D2 pKi” value was 6.00.
`Cl.Cn1c(SCCCN2CC[C@]3(C[C@@H]3c3ccc(C(F)(F)F)cc3)C2)nnc1C1CCC(=O)NC1` (stereo partly drawn) [Example 121, 5-[4-methyl-5-({3-[(1R,3S)-1-[4-(trifluoromethyl)phenyl]-5-azaspiro[2.4]heptan-5-yl]propyl}sulfanyl)-4H-1,2,4-triazol-3-yl]piperidin-2-one hydrochloride] was tested, and the “D2 pKi” value was 5.92.
With `Cl.Cn1c(SCCCN2CC[C@]3(C[C@@H]3c3ccc(C(F)(F)F)cc3F)C2)nnc1-c1ccn(C)c(=O)c1` [Example 139, 4-[5-({3-[(1S,3S)-1-[2-fluoro-4-(trifluoromethyl)phenyl]-5-azaspiro[2.4]heptan-5-yl]propyl}sulfanyl)-4-methyl-4H-1,2,4-triazol-3-yl]-1-methyl-1,2-dihydropyridin-2-one hydrochloride] the “D2 pKi” value was 5.83.

What follows are compounds tested against hD2 recombinant receptor (human dopamine receptor type 2, long variant, CHO-Gα16-hD2L cells) (Homo sapiens (Human), UniProt P14416) (assay: cell-based). Details: D2 fpKi, functional pKi; antagonism of dopamine EC80 calcium response (FLIPR).
With `Cn1c(SCCCN2CC[C@]3(CC3c3ccc(C(F)(F)F)cc3F)C2)nnc1C1CCOCC1` (single isomer, unassigned) [Example 71] the pKi was < 5.00.
`Cn1c(SCCCN2CC[C@]3(CC3c3ccc(C(F)(F)F)cc3F)C2)nnc1-c1ccncn1` (stereo partly drawn) [Example 213, (1S,3S/1R,3R)-1-[2-fluoro-4-(trifluoromethyl)phenyl]-5-(3-{[4-methyl-5-(pyrimidin-4-yl)-4H-1,2,4-triazol-3-yl]sulfanyl}propyl)-5-azaspiro[2.4]heptane] showed a pKi of 7.09.
With `Cn1c(CCCCN2CC[C@@]3(C[C@@H]3c3ccc(C(F)(F)F)cc3)C2)nnc1C1CCOCC1` (single isomer, unassigned) [Example 300, (1R,3R or 1S,3S)-5-{4-[4-methyl-5-(oxan-4-yl)-4H-1,2,4-triazol-3-yl]butyl}-1-[4-(trifluoromethyl)phenyl]-5-azaspiro[2.4]heptane hydrochloride] the pKi was < 5.00.
For `Cn1c(SCCCN2CC[C@@]3(C[C@@H]3c3ccc(C(F)(F)F)cc3F)C2)nnc1C1CCOCC1` (single isomer, unassigned) [Example 74, (1S,3R or 1R,3S)-1-[2-fluoro-4-(trifluoromethyl)phenyl]-5-(3-{[4-methyl-5-(oxan-4-yl)-4H-1,2,4-triazol-3-yl]sulfanyl}propyl)-5-azaspiro[2.4]heptane hydrochloride], the pKi was 5.90.
In the case of `Cn1c(SCCCN2CC[C@]3(CC3c3ccc(C(F)(F)F)nc3)C2)nnc1C1CCOCC1` (stereo partly drawn) [Example 84, (1R,3S/1S,3R)-5-(3-{[4-methyl-5-(oxan-4-yl)-4H-1,2,4-triazol-3-yl]sulfanyl}propyl)-1-[6-(trifluoromethyl)pyridin-3-yl]-5-azaspiro[2.4]heptane], the pKi was < 5.00.
`Cn1c(SCCCN2CC[C@]3(C[C@@H]3c3ccc(C(F)(F)F)cc3)C2)nnc1-c1ccno1` [Example 229, (1R,3S/1S,3R)-5-(3-{[4-methyl-5-(1,2-oxazol-5-yl)-4H-1,2,4-triazol-3-yl]sulfanyl}propyl)-1-[4-(trifluoromethyl)phenyl]-5-azaspiro[2.4]heptane] was tested, and the pKi was 5.63.
`Cc1ncoc1-c1nnc(SCCCN2CCC[C@]3(C[C@H]3c3ccc(C(F)(F)F)cc3)C2)n1C` (racemic) [Example 310, (1R,3S/1S,3R)-5-(3-{[4-methyl-5-(4-methyl-1,3-oxazol-5-yl)-4H-1,2,4-triazol-3-yl]sulfanyl}propyl)-1-[4-(trifluoromethyl)phenyl]-5-azaspiro[2.5]octane] was tested, and the pKi was 7.72.
In the case of `Cn1c(SCCCN2CC[C@]3(CC3c3ccccc3)C2)nnc1C1CCOCC1` (stereo partly drawn) [Example 80, (1R,3S/1S,3R)-5-(3-{[4-methyl-5-(oxan-4-yl)-4H-1,2,4-triazol-3-yl]-sulfanyl}propyl)-1-phenyl-5-azaspiro[2.4]heptane], the pKi was < 5.00.
In the case of `Cn1c(SCCCN2CC[C@]3(CC3c3ccc(C(F)(F)F)cc3)C2)nnc1N1CCOCC1` (single isomer, unassigned) [Example 114, hydrochloride], the pKi was 5.79.
`CC(=O)N1CCC(c2nnc(SCCCN3CC[C@]4(C[C@@H]4c4ccc(C(F)(F)F)cc4)C3)n2C)CC1` (single isomer, unassigned) [Example 100] gave a pKi of 5.93.
Compound `Cn1c(CCCCN2CC[C@]3(C[C@@H]3c3ccc(C(F)(F)F)cc3F)C2)nnc1C1CCOCC1` (single isomer, unassigned) [Example 295, hydrochloride] has a pKi of 6.06.
Work on `Cn1c(SCCCN2CC[C@]3(C[C@@H]3c3ccc(C(F)(F)F)cc3F)C2)nnc1C1CCOCC1` (single isomer, unassigned) [Example 79, hydrochloride] yielded a pKi of 6.44.
`Cn1c(CCCCN2CC[C@]3(C[C@H]3c3ccc(C(F)(F)F)cc3)C2)nnc1C1CCOCC1` (single isomer, unassigned) [Example 299, (1S,3S or 1R,3R)-5-{4-[4-methyl-5-(oxan-4-yl)-4H-1,2,4-triazol-3-yl]butyl}-1-[4-(trifluoromethyl)phenyl]-5-azaspiro[2.4]heptane hydrochloride] was tested, and the pKi was < 5.00.
`Cc1ncoc1-c1nnc(SCCCN2CCC3(CC2)C[C@@H]3c2ccccc2)n1C` (single isomer, unassigned) [Example 309, (1S or 1R)-6-(3-{[4-methyl-5-(4-methyl-1,3-oxazol-5-yl)-4H-1,2,4-triazol-3-yl]sulfanyl}propyl)-1-phenyl-6-azaspiro[2.5]octane hydrochloride] gave a pKi of 5.95.
`Cc1ncoc1-c1nnc(SCCCN2CCC3(CCC3c3ccccc3)C2)n1C` (single isomer, unassigned) [Example 321, (1R,4S or 1S,4R or 1S,4S or 1R,4R)-6-(3-{[4-methyl-5-(4-methyl-1,3-oxazol-5-yl)-4H-1,2,4-triazol-3-yl]sulfanyl}propyl)-1-phenyl-6-azaspiro[3.4]octane hydrochloride] was tested, and the pKi was 5.65.
`Cn1c(SCCCN2CC[C@]3(CC3c3ccc(C(F)(F)F)cc3)C2)nnc1N1CCOCC1` (single isomer, unassigned) [Example 115] showed a pKi of 7.01.
With `Cn1c(OCCCN2CC[C@]3(C[C@H]3c3ccc(C(F)(F)F)cc3)C2)nnc1C1CCOCC1` [Example 303, (1S,3S/1R,3R)-5-(3-{[4-methyl-5-(oxan-4-yl)-4H-1,2,4-triazol-3-yl]oxy}-propyl)-1-[4-(trifluoromethyl)phenyl]-5-azaspiro[2.4]heptane] the pKi was < 5.00.
For `Cn1c(SCCCN2CC[C@]3(C[C@@H]3c3ccccc3)C2)nnc1C1CCOCC1` (single isomer, unassigned) [Example 83, hydrochloride], the pKi was < 5.00.
`CC(=O)N1CCC(c2nnc(SCCCN3CC[C@]4(C[C@@H]4c4ccc(C(F)(F)F)cc4)C3)n2C)CC1` [Example 99, 1-{4-[4-methyl-5-({3-[(1R,3S/1S,R3)-1-[4-(trifluoromethyl)phenyl]-5-azaspiro[2.4]heptan-5-yl]propyl}sulfanyl)-4H-1,2,4-triazol-3-yl]piperidin-1-yl}ethan-1-one] showed a pKi of 5.65.
